# Experiments:
# Assay in all cases: flow cytometry, inhibition of purified knob binding to HCE cells
# Type in all cases: cell-based
# Conditions in all cases: knob preincubated with ME0462, 1 h, 4 °C; human corneal epithelial cells
# HAdV-D37/64 fiber knob = target: T1, HAdV-D37/64 fiber knob (Human adenovirus D37, UniProt Q64823)
# T1 construct: gene L5; N-terminal RGS-His tag kept (pQE30-Xa); E. coli M15; Ni-NTA and Q-sepharose
# HAdV-D8/53 fiber knob = target: T2, HAdV-D8/53 fiber knob (Human adenovirus D8, UniProt P36845)
# T2 construct: gene L5
# HAdV-D54 fiber knob = target: T3, HAdV-D54 fiber knob (Human adenovirus 54, UniProt B9A5P2)
# T3 construct: gene L5
substance,measurement,setting,value
ME0462,% inhibition at 80 μM,HAdV-D37/64 fiber knob,70%
same,% inhibition at 80 μM,HAdV-D8/53 fiber knob,60%
same,% inhibition at 80 μM,HAdV-D54 fiber knob,60%
